Like-named read-outs stand apart in the source and are kept apart here. Blank lines part the entries; values can stand above or below the compound they belong to.
Molecular target: T1, F508delCFTR (Homo sapiens, UniProt P13569, DEL508-508)
T1 construct: expressed in transfected cells; host or cells: CFBE41o- human lung-derived epithelial cells (CFBE4lo-F508delCFTR-HRP), doxycycline-inducible
Assay: Cell Surface Expression-Horse Radish Peroxidase (CSE-HRP) Assay;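 as to Maximum % activity (with co-corrector): co-corrector and positive control are both the same reference corrector at 2 µM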
Type: cell-based
Details: for Emax / Maximum % activity (with co-corrector): maximum at any tested concentration, normalized to on-plate positive control; for Emax: read-out: Maximum % activity (without co-corrector)
Experimental: Cell Surface Expression-Horse Radish Peroxidase (CSE-HRP) Assay;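 as to Maximum % activity (with co-corrector): co-corrector and positive control are both the same reference corrector at 2 µM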
The development was achieved by expressing the F508delCFTR mutation along with a horseradish peroxidase (HRP) in the fourth exofacial loop, and then measuring the HRP activity using luminescence readout from these cells, CFBE4lo-F508delCFTR-HRP, that were incubated overnight with the test corrector compounds, either without or with the co-corrector. […] The test compounds were then added either without or with a co-corrector at the required concentrations and further incubated for 18-24 hours at 33° C. The highest concentration tested was 20 μM with an 8-point concentration response curve using a 3-fold dilution in both the test compound without or with the co-corrector. Three replicate plates were run to determine one EC50. All plates contained negative controls (dimethyl sulfoxide, DMSO) and positive control (2 μM of 3-[(2R,4R)-4-({[1-(2,2-difluoro-1,3-benzodioxol-5-yl)cyclopropyl]carbonyl}amino)-7-methoxy-3,4-dihydro-2H-chromen-2-yl]benzoic acid) as well as on-plate concentration response of the positive control. […] The raw counts from the experiment were analyzed using Accelrys® Assay Explorer v3.3.
1−[3*SDPositive Control+3*SDNegative Control/Absolute(MeanPositive Control−MeanNegative Control)]
wherein “SD” is standard deviation.
The % activity measured at each of the 8 test concentrations of the test compound added either without or with a co-corrector (2 μM of 3-[(2R,4R)-4-({[1-(2,2-difluoro-1,3-benzodioxol-5-yl)cyclopropyl]carbonyl}amino)-7-methoxy-3,4-dihydro-2H-chromen-2-yl]benzoic acid) was normalized to the on-plate positive control using the following formulae:
% activity(Test compound without co-corrector)=[(test compound without co-corrector response−DMSO response)/(positive control response−DMSO response)]*100
% activity(Test compound with co-corrector)=[(test compound with co-corrector response−DMSO response)/(positive control response−DMSO response)]*100
The maximum % activity achieved for the test compound either without or with a co-corrector at any tested concentration is presented in Table 4 along with the respective EC50's calculated using the following general sigmoidal curve with variable Hill slope equation (described as Model 42 in the Accelrys® Assay Explorer v3.3 software):
General sigmoidal curve with concentration, response, top, bottom, EC50 and Hill slope. This model describes a sigmoidal curve with an adjustable baseline, a. The equation can be used to fit curves where response is either increasing or decreasing with respect to the independent variable, “x”.
“x” is a concentration of drug under test. “y” is the response. “a” is the maximum response, and “d” is the minimum response “c” is the inflection point (EC50) for the curve. That is, “y” is halfway between the lower and upper asymptotes when x=c. “b” is the slope-factor or Hill coefficient. The sign of b is positive when the response increases with increasing dose and is negative when the response decreases with increasing dose (inhibition).

[1] = test compound without co-corrector
[2] = test compound without co-corrector, read-out: EC50 (without co-corrector)
[3] = with co-corrector (2 μM of 3-[(2R,4R)-4-({[1-(2,2-difluoro-1,3-benzodioxol-5-yl)cyclopropyl]carbonyl}amino)-7-methoxy-3,4-dihydro-2H-chromen-2-yl]benzoic acid)
[4] = with co-corrector (2 μM of 3-[(2R,4R)-4-({[1-(2,2-difluoro-1,3-benzodioxol-5-yl)cyclopropyl]carbonyl}amino)-7-methoxy-3,4-dihydro-2H-chromen-2-yl]benzoic acid), read-out: EC50 (with co-corrector)
[5] = CSE-HRP, test compound without co-corrector, read-out: EC50 (without co-corrector)
[6] = CSE-HRP, with co-corrector (2 μM of 3-[(2R,4R)-4-({[1-(2,2-difluoro-1,3-benzodioxol-5-yl)cyclopropyl]carbonyl}amino)-7-methoxy-3,4-dihydro-2H-chromen-2-yl]benzoic acid), read-out: EC50 (with co-corrector)
[7] = CSE-HRP, with co-corrector (2 μM)

T1 sequence (P13569 with tags, fused parts or gaps DEL508-508): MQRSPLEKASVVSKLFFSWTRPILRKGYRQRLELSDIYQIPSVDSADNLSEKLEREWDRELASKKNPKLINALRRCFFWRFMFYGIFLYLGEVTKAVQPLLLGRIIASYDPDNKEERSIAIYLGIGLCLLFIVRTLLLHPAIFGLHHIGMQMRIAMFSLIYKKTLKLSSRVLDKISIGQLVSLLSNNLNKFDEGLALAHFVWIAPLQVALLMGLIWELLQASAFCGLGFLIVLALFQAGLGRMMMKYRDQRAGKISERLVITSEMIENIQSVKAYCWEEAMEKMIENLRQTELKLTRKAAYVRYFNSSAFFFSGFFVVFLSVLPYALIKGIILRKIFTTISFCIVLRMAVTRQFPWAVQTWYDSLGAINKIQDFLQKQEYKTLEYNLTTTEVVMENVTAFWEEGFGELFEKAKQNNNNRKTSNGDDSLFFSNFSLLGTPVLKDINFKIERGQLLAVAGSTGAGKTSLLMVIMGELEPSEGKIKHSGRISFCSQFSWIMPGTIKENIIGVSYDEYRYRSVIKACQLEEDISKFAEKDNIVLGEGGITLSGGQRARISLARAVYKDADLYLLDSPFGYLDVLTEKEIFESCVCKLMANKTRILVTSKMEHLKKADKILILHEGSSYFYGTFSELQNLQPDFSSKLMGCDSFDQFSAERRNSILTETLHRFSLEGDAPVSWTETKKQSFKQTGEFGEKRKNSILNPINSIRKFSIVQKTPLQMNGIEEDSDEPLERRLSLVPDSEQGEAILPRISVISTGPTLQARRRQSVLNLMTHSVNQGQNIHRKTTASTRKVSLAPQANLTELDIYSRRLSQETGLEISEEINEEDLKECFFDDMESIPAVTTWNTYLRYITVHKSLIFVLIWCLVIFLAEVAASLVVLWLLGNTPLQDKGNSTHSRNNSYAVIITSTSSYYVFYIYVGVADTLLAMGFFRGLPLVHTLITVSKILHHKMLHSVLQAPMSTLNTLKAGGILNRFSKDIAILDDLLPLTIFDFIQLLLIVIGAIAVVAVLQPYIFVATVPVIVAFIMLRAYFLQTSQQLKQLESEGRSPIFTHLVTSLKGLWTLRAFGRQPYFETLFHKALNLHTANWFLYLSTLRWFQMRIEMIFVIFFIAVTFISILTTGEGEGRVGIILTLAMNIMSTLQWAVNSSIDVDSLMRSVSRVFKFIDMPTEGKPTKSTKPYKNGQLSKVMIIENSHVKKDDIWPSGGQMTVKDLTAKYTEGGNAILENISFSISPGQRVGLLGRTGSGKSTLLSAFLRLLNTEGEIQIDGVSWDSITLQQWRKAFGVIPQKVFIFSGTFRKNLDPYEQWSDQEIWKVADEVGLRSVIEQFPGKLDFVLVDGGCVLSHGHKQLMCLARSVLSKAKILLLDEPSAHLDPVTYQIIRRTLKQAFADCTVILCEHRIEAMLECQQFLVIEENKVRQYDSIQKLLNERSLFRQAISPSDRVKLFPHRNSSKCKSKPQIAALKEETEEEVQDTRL

Compound: COc1ccc(C(F)(F)F)cc1CN[C@H]1[C@H](C(C)(C)C)[C@@H](C(=O)O)N(C(=O)C2C3CCCC32)[C@H]1c1ccccc1 (some centres unmarked) [Example I-161]
- EC50 [2]: 1000 to 10000 nM
- EC50 [4]: 1000 to 10000 nM
- Maximum % activity (with co-corrector) (with co-corrector (2 μM)): +++ (≥350)
- Emax (without co-corrector): > 200%

Compound: COc1cnc(-c2ccccc2F)cc1CN[C@H]1[C@H](C(C)(C)C)[C@@H](C(=O)O)N(C(=O)C2CCCCC2)[C@H]1c1ccccc1 [II-417]
- Emax [1]: 100 to 200%
- EC50 [2]: 1000 to 10000 nM
- Maximum % activity (with co-corrector) [3]: +++ (≥350)
- EC50 [4]: 1000 to 10000 nM

Compound: COc1cccc([C@@H]2[C@H](NCc3cc(C(F)(F)F)ccc3OC)[C@@H](C(C)(C)C)[C@H](C(=O)O)N2C(=O)C2CCCCC2)n1 (racemic) [Example I-19]
- EC50 [2]: 1000 to 10000 nM
- EC50 [4]: 1000 to 10000 nM
- Maximum % activity (with co-corrector) (with co-corrector (2 μM)): +++ (≥350)
- Emax (without co-corrector): 100 to 200%

Compound: O=C(O)[C@@H]1N(C(=O)C2CCCCC2)[C@H](c2ccccc2)[C@H](NCc2ccccc2OC(F)F)C12CC2 (racemic) [III-57]
- Emax [1]: < 100%
- EC50 [2]: > 10000 nM
- Maximum % activity (with co-corrector) [3]: ++ (≥150 and <350)
- EC50 [4]: 1000 to 10000 nM

Compound: COc1cc(C(F)(F)F)ccc1CN[C@H]1[C@H](C(C)(C)C)[C@@H](C(=O)O)N(C(=O)OC(C)C)[C@H]1c1cccnc1N(C)C [II-514]
- Emax [1]: 100 to 200%
- EC50 [2]: 1000 to 10000 nM
- Maximum % activity (with co-corrector) [3]: +++ (≥350)
- EC50 [4]: 1000 to 10000 nM

Compound: COc1ncc(C2CCC2)cc1CN[C@H]1[C@H](C(C)(C)C)[C@@H](C(=O)O)N(C(=O)[C@@H]2CCCO2)[C@H]1c1ccccc1Cl [Example 103, (2S,3S,4S,5S)-3-tert-butyl-5-(2-chlorophenyl)-4-{[(5-cyclobutyl-2-methoxypyridin-3-yl)methyl]amino}-1-[(2S)-oxolane-2-carbonyl]pyrrolidine-2-carboxylic acid]
- EC50 [2]: 1000 to 10000 nM
- EC50 [4]: 1000 to 10000 nM
- Maximum % activity (with co-corrector) (with co-corrector (2 μM)): +++ (≥350)
- Emax (without co-corrector): 100 to 200%

Compound: COc1ccc(C(C)(C)C)cc1CN[C@H]1[C@H](C(C)(C)C)[C@@H](C(=O)O)N(C(=O)C2CCc3cc(F)ccc3O2)[C@H]1c1ccccc1 (some centres unmarked) [II-320]
- Emax [1]: > 200%
- EC50 [2]: 1000 to 10000 nM
- Maximum % activity (with co-corrector) [3]: +++ (≥350)
- EC50 [4]: < 1000 nM

Compound: COc1ccc(C(C)(C)C)cc1CN[C@H]1[C@H](C(C)(C)C)[C@@H](C(=O)O)N(C(=O)CC2CCC(F)(F)C2)[C@H]1c1ccccc1 (some centres unmarked) [II-218]
- EC50 [5]: 1000 to 10000 nM
- EC50 [6]: 1000 to 10000 nM
- Maximum % activity (with co-corrector) [7]: +++ (≥350)
- Emax (CSE-HRP, without co-corrector): 100 to 200%

Compound: COc1cc2c(cc1CN[C@H]1[C@H](C(C)(C)C)[C@@H](C(=O)O)N(C(=O)OC(C)C)[C@H]1c1ccccc1C)CCC2 [Example 90, (2S,3S,4S,5S)-3-tert-butyl-4-{[(6-methoxy-2,3-dihydro-1H-inden-5-yl)methyl]amino}-5-(2-methylphenyl)-1-{[(propan-2-yl)oxy]carbonyl}pyrrolidine-2-carboxylic acid]
- EC50 [2]: 1000 to 10000 nM
- EC50 [4]: 1000 to 10000 nM
- Maximum % activity (with co-corrector) (with co-corrector (2 μM)): +++ (≥350)
- Emax (without co-corrector): > 200%

Compound: Cc1cc(C)c(C#N)c(N[C@H]2[C@H](C(C)(C)C)[C@@H](C(=O)O)N(C(=O)C3CCCCC3)[C@H]2c2ccccc2)n1 [III-148]
- Emax [1]: < 100%
- EC50 [2]: 1000 to 10000 nM
- EC50 [4]: 1000 to 10000 nM
- Maximum % activity (with co-corrector) (with co-corrector (2 μM)): +++ (≥350)

Compound: COc1ncc(C(F)(F)F)cc1CN[C@H]1[C@H](C(C)(C)C)[C@@H](C(=O)O)N(C(=O)[C@H](C)OC)[C@H]1c1ccccc1C(C)C [II-590]
- Emax [1]: 100 to 200%
- EC50 [2]: 1000 to 10000 nM
- Maximum % activity (with co-corrector) [3]: +++ (≥350)
- EC50 [4]: < 1000 nM

Compound: CCOc1cc(N[C@H]2[C@H](C(C)(C)C)[C@@H](C(=O)O)N(C(=O)C3CCCCC3)[C@H]2c2ccccc2)nc2ccccc12 [III-152]
- Emax [1]: < 100%
- EC50 [2]: > 10000 nM
- EC50 [4]: 1000 to 10000 nM
- Maximum % activity (with co-corrector) (with co-corrector (2 μM)): ++ (≥150 and <350)

Compound: COc1ccc(C(C)(C)C)cc1CN[C@H]1[C@H](C(C)(C)C)[C@@H](C(=O)O)N(C(=O)C2CC3C=CC2C3)[C@H]1c1ccccc1 (some centres unmarked) [II-211]
- EC50 [5]: 1000 to 10000 nM
- EC50 [6]: 1000 to 10000 nM
- Maximum % activity (with co-corrector) [7]: +++ (≥350)
- Emax (CSE-HRP, without co-corrector): > 200%

Compound: COc1ccc(C(C)(C)C)cc1CN[C@H]1[C@H](C(C)(C)C)[C@@H](C(=O)O)N(C(=O)C2CCc3ccccc3O2)[C@H]1c1ccccc1 (single isomer, unassigned) [II-164]
- EC50 [5]: < 1000 nM
- EC50 [6]: < 1000 nM
- Maximum % activity (with co-corrector) [7]: +++ (≥350)
- Emax (CSE-HRP, without co-corrector): > 200%

Second part, the compound after the results:

- Emax [1]: > 200%
- EC50 [2]: 1000 to 10000 nM
- Maximum % activity (with co-corrector) [3]: +++ (≥350)
- EC50 [4]: 1000 to 10000 nM
Compound: COc1cc2ccccc2cc1CN[C@H]1[C@H](C(C)(C)C)[C@@H](C(=O)O)N(C(=O)OC(C)C)[C@H]1c1ccccc1 [II-550]

- Emax [1]: 100 to 200%
- EC50 [2]: 1000 to 10000 nM
- Maximum % activity (with co-corrector) [3]: +++ (≥350)
- EC50 [4]: 1000 to 10000 nM
Compound: COc1ccc(C(C)(C)C)cc1CN[C@H]1[C@H](C(C)(C)C)[C@@H](C(=O)O)N(C(=O)C2CC2(F)F)[C@H]1c1ccccc1 (some centres unmarked) [II-327]

- EC50 [2]: 1000 to 10000 nM
- EC50 [4]: 1000 to 10000 nM
- Maximum % activity (with co-corrector) (with co-corrector (2 μM)): ++ (≥150 and <350)
- Emax (without co-corrector): < 100%
Compound: CC(C)(C)[C@@H]1[C@@H](NCc2ccccc2OC(F)F)[C@@H](c2ccccn2)N(C(=O)C2CCCCC2)[C@H]1C(=O)O (racemic) [Example I-11]

- EC50 [2]: 1000 to 10000 nM
- EC50 [4]: 1000 to 10000 nM
- Maximum % activity (with co-corrector) (with co-corrector (2 μM)): +++ (≥350)
- Emax (without co-corrector): > 200%
Compound: COc1nc(C(C)(C)C)ccc1CN[C@H]1[C@H](C(C)(C)C)[C@@H](C(=O)O)N(C(=O)C2CCCC(OC)C2)[C@H]1c1ccccc1 (some centres unmarked) [Example I-197]

- Emax [1]: 100 to 200%
- EC50 [2]: < 1000 nM
- Maximum % activity (with co-corrector) [3]: +++ (≥350)
- EC50 [4]: < 1000 nM
Compound: COc1nc(C(C)(C)C)ccc1CN[C@H]1[C@H](C(C)(C)C)[C@@H](C(=O)O)N(C(=O)[C@@H]2OC[C@@H]3CCC[C@@H]32)[C@H]1c1ccccc1 (relative stereo) [II-431]

- EC50 [2]: 1000 to 10000 nM
- EC50 [4]: 1000 to 10000 nM
- Maximum % activity (with co-corrector) (with co-corrector (2 μM)): +++ (≥350)
- Emax (without co-corrector): 100 to 200%
Compound: COc1nc(C2CCC2)ccc1CN[C@H]1[C@H](C(C)(C)C)[C@@H](C(=O)O)N(C(=O)C2CCCCC2)[C@H]1c1ccccc1 [Example I-242]
